Data published in patent US12171868B2 (Neurelis, Inc., priority 2022, dated 2024).
Read-outs that look alike come from different tables or passages of the source.

Conditions: saturated

Q: For `Cc1cc2c(s1)Nc1ccccc1N=C2N1CCN(C)CC1` [Olanzapine, 2-methyl-4-(4-methyl-1-piperazinyl)-10H-thieno[2,3-b] [1,5]benzodiazepine], which Appearance (20% Dimethylacetamide/80% PEG 200) is on record?
A: Clear amber solution

Q: What about the Appearance (40% Dimethylacetamide/60% PEG 200) of the same compound?
A: Clear amber solution

Q: What about the Appearance (60% Dimethylacetamide/40% PEG 200) of the same compound?
A: Clear dark amber solution

Q: What about the Appearance (80% Dimethylacetamide/20% PEG 200) of the same compound?
A: Clear dark amber solution

Q: What about the Appearance (100% PEG 200) of the same compound?
A: Clear amber solution
